# PubChem BioAssay (NCI)
#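 Cells were grown in 96-well plates and exposed to each compound for 48 hours at five concentrations; endpoints were interpolated linearly between bracketing concentrations, or set to the highest concentration if not reached. TGI is the concentration that stops growth completely.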
# What was measured:
# Assay in all cases: DTP human tumour cell line panel, 48 h
# [1] = system: T-47D breast
# [2] = system: ACHN renal
# [3] = system: IGROV1 ovarian
# [4] = system: MALME-3M melanoma
# [5] = system: U251 CNS
# [6] = system: PC-3 prostate
# [7] = system: RPMI-8226 leukemia
# [8] = system: SK-MEL-28 melanoma
# [9] = system: HCC-2998 colon
# [10] = system: SW-620 colon
# [11] = system: OVCAR-5 ovarian
# [12] = system: OVCAR-4 ovarian
# [13] = system: MCF7 breast
# [14] = system: M14 melanoma
# [15] = system: SF-268 CNS
# [16] = system: SNB-75 CNS
# [17] = system: NCI-H23 lung
# [18] = system: SK-MEL-2 melanoma
# [19] = system: SK-OV-3 ovarian
# [20] = system: BT-549 breast
# [21] = system: MOLT-4 leukemia
# [22] = system: HS 578T breast
# [23] = system: COLO 205 colon
# [24] = system: HCT-15 colon
# [25] = system: HOP-62 NSCLC
# [26] = system: SF-539 CNS
# [27] = system: SNB-19 CNS
# [28] = system: K-562 leukemia
# [29] = system: 786-0 renal
# [30] = system: SR leukemia
# [31] = system: UACC-257 melanoma
# [32] = system: MDA-MB-435
# [33] = system: SF-295 CNS
# [34] = system: OVCAR-8 ovarian
# [35] = system: A549 NSCLC
# [36] = system: HT29 colon
# [37] = system: OVCAR-3 ovarian
# [38] = system: CCRF-CEM leukemia
# [39] = system: HCT-116 colon
# [40] = system: MDA-N
# [41] = system: UACC-62 melanoma
# [42] = system: LOX IMVI melanoma
# [43] = system: SN12C renal
# [44] = system: KM12 colon
# [45] = system: UO-31 renal
# [46] = system: SK-MEL-5 melanoma
# [47] = system: NCI/ADR-RES ovarian
# [48] = system: CAKI-1 renal
# [49] = system: EKVX NSCLC
# [50] = system: MDA-MB-231 breast
# [51] = system: NCI-H460 lung
# [52] = system: NCI-H522 lung
# [53] = system: NCI-H226 lung
# [54] = system: TK-10 renal
# [55] = system: HL-60(TB) leukemia
# [56] = system: DU-145 prostate
# [57] = system: RXF 393 renal
# [58] = system: A498 renal
# [59] = system: HOP-92 NSCLC
smiles,measurement,setting,value
Cc1csc2nc3[nH]ncc3c(=O)n12,TGI,[1],> 100 µM
same,TGI,[2],> 100 µM
same,TGI,[3],> 100 µM
same,TGI,[4],> 100 µM
same,TGI,[5],> 100 µM
same,TGI,[6],> 100 µM
same,TGI,[7],> 100 µM
same,TGI,[8],> 100 µM
same,TGI,[9],> 100 µM
same,TGI,[10],> 100 µM
same,TGI,[11],> 100 µM
same,TGI,[12],> 100 µM
same,TGI,[13],> 100 µM
same,TGI,[14],> 100 µM
same,TGI,[15],> 100 µM
same,TGI,[16],> 100 µM
same,TGI,[17],> 100 µM
same,TGI,[18],> 100 µM
same,TGI,[19],> 100 µM
same,TGI,[20],> 100 µM
same,TGI,[21],> 100 µM
same,TGI,[22],> 100 µM
same,TGI,[23],> 100 µM
same,TGI,[24],> 100 µM
same,TGI,[25],> 100 µM
same,TGI,[26],> 100 µM
same,TGI,[27],> 100 µM
same,TGI,[28],> 100 µM
same,TGI,[29],> 100 µM
same,TGI,[30],> 100 µM
same,TGI,[31],> 100 µM
same,TGI,[32],> 100 µM
same,TGI,[33],> 100 µM
same,TGI,[34],> 100 µM
same,TGI,[35],> 100 µM
same,TGI,[36],> 100 µM
same,TGI,[37],> 100 µM
same,TGI,[38],> 100 µM
same,TGI,[39],> 100 µM
same,TGI,[40],> 100 µM
same,TGI,[41],> 100 µM
same,TGI,[42],> 100 µM
same,TGI,[43],> 100 µM
same,TGI,[44],> 100 µM
same,TGI,[45],> 100 µM
same,TGI,[46],> 100 µM
same,TGI,[47],> 100 µM
same,TGI,[48],> 100 µM
same,TGI,[49],> 100 µM
same,TGI,[50],> 100 µM
same,TGI,[51],> 100 µM
same,TGI,[52],> 100 µM
same,TGI,[53],> 100 µM
CC(C)CCc1c(Cl)nc(Cl)nc1Cl,TGI,[2],92.3 µM
same,TGI,[3],37.5 µM
same,TGI,[4],50.7 µM
same,TGI,[5],24.4 µM
same,TGI,[6],> 100 µM
same,TGI,[7],> 100 µM
same,TGI,[9],64 µM
same,TGI,[10],> 100 µM
same,TGI,[11],55 µM
same,TGI,[12],44.2 µM
same,TGI,[13],40.7 µM
same,TGI,[14],15.3 µM
same,TGI,[15],> 100 µM
same,TGI,[16],22.3 µM
same,TGI,[18],> 100 µM
same,TGI,[19],37.6 µM
same,TGI,[20],12.3 µM
same,TGI,[21],> 100 µM
same,TGI,[22],56.8 µM
same,TGI,[24],> 100 µM
same,TGI,[25],30.4 µM
same,TGI,[26],56.5 µM
same,TGI,[27],39 µM
same,TGI,[28],> 100 µM
same,TGI,[29],46.3 µM
same,TGI,[31],34 µM
same,TGI,[32],32.2 µM
same,TGI,[33],34.4 µM
same,TGI,[54],35.5 µM
same,TGI,[35],54.9 µM
same,TGI,[36],28.9 µM
same,TGI,[37],24.3 µM
same,TGI,[38],> 100 µM
same,TGI,[39],9.3 µM
same,TGI,[40],21.4 µM
same,TGI,[41],24.7 µM
same,TGI,[55],> 100 µM
same,TGI,[42],11.8 µM
same,TGI,[43],57.9 µM
same,TGI,[45],35.3 µM
same,TGI,[46],16.4 µM
same,TGI,[47],> 100 µM
same,TGI,[56],31.1 µM
same,TGI,[49],63.2 µM
same,TGI,[57],11.5 µM
same,TGI,[51],39.7 µM
same,TGI,[52],9.89 µM
same,TGI,[53],14.6 µM
Cc1nn(C(=O)Cc2ccccc2)c2c1C(c1ccccc1[N+](=O)[O-])SC(N)=N2 (stereo not given),TGI,[1],> 100 µM
same,TGI,[2],> 100 µM
same,TGI,[3],> 100 µM
same,TGI,[4],> 100 µM
same,TGI,[6],> 100 µM
same,TGI,[7],> 100 µM
same,TGI,[8],> 100 µM
same,TGI,[9],> 100 µM
same,TGI,[10],> 100 µM
same,TGI,[13],> 100 µM
same,TGI,[14],> 100 µM
same,TGI,[15],> 100 µM
same,TGI,[16],> 100 µM
same,TGI,[58],> 100 µM
same,TGI,[17],> 100 µM
same,TGI,[19],> 100 µM
same,TGI,[20],> 100 µM
same,TGI,[21],> 100 µM
same,TGI,[22],> 100 µM
same,TGI,[23],> 100 µM
same,TGI,[24],> 100 µM
same,TGI,[25],> 100 µM
same,TGI,[26],> 100 µM
same,TGI,[27],> 100 µM
same,TGI,[28],> 100 µM
same,TGI,[29],> 100 µM
same,TGI,[30],> 100 µM
same,TGI,[31],> 100 µM
same,TGI,[32],> 100 µM
same,TGI,[33],> 100 µM
same,TGI,[34],> 100 µM
same,TGI,[54],> 100 µM
same,TGI,[35],> 100 µM
same,TGI,[36],> 100 µM
same,TGI,[38],> 100 µM
same,TGI,[39],> 100 µM
same,TGI,[40],> 100 µM
same,TGI,[41],> 100 µM
same,TGI,[55],> 100 µM
same,TGI,[42],> 100 µM
same,TGI,[43],> 100 µM
same,TGI,[44],> 100 µM
same,TGI,[45],> 100 µM
same,TGI,[46],> 100 µM
same,TGI,[56],> 100 µM
same,TGI,[48],> 100 µM
same,TGI,[49],> 100 µM
same,TGI,[50],> 100 µM
same,TGI,[51],> 100 µM
same,TGI,[52],> 100 µM
same,TGI,[53],> 100 µM
COc1ccc([C@H](NC(=O)c2ccccc2)[C@@H](O)C(=O)O[C@H]2C[C@@]3(O)C(OC(=O)c4ccccc4)C4[C@](C)(C(=O)[C@H](OC(C)=O)C(=C2C)C3(C)C)[C@@H](O)C[C@H]2OC[C@@]42OC(C)=O)cc1 (stereo not given in full),TGI,[1],> 10 µM
same,TGI,[2],> 10 µM
same,TGI,[3],> 10 µM
same,TGI,[4],> 10 µM
same,TGI,[7],> 10 µM
same,TGI,[8],> 10 µM
same,TGI,[9],0.091 µM
same,TGI,[10],> 10 µM
same,TGI,[11],> 10 µM
same,TGI,[12],> 10 µM
same,TGI,[13],> 10 µM
same,TGI,[14],> 10 µM
same,TGI,[15],> 10 µM
same,TGI,[16],0.0589 µM
same,TGI,[17],> 10 µM
same,TGI,[18],> 10 µM
same,TGI,[20],> 10 µM
same,TGI,[21],> 5.11 µM
same,TGI,[22],0.0122 µM
same,TGI,[23],0.0123 µM
same,TGI,[24],> 8.98 µM
same,TGI,[26],0.00758 µM
same,TGI,[27],> 10 µM
same,TGI,[28],> 10 µM
same,TGI,[29],> 10 µM
same,TGI,[30],0.694 µM
same,TGI,[31],> 10 µM
same,TGI,[33],2.92 µM
same,TGI,[34],> 10 µM
same,TGI,[54],> 10 µM
same,TGI,[35],> 10 µM
same,TGI,[36],0.0656 µM
same,TGI,[38],> 10 µM
same,TGI,[40],> 10 µM
same,TGI,[41],> 10 µM
same,TGI,[55],0.0279 µM
same,TGI,[42],> 10 µM
same,TGI,[43],> 10 µM
same,TGI,[46],> 10 µM
same,TGI,[47],> 10 µM
same,TGI,[56],0.00657 µM
same,TGI,[48],> 10 µM
same,TGI,[59],> 10 µM
same,TGI,[49],> 10 µM
same,TGI,[50],> 10 µM
same,TGI,[57],> 10 µM
same,TGI,[51],> 10 µM
same,TGI,[53],> 10 µM
